Where two headings read alike, the source gives them in different places.
How the values were obtained:
Format in all cases: binding
[1] = molecular target: T1, CIB1 and αIIb interaction (GST-CIB1 : F-αIIb peptide) (Homo sapiens, UniProt Q99828); experiment: FP assay, 384-well format (screen); design: 384-well SCREEN Efficacy (%): concentration or dose not given beside the values; conditions: F-αIIb peptide; for 384-well SCREEN Confirm?: YES/NO; for IC50: read-out: 384-well SCREEN IC50
T1 construct: made in house; host or cells: BL-21 plus RIL cells (E. coli)
T1 sequence (Q99828 1-191): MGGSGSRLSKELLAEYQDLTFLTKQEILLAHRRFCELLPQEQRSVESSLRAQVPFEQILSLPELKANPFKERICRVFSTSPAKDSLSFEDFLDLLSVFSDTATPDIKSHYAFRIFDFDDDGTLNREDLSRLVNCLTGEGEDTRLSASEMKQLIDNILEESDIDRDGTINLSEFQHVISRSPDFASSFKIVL

[2] = molecular target: T2, GST-CIB1 : F-scrambled peptide (Homo sapiens, UniProt Q99828); experiment: FP scrambled-peptide counter screen, 384-well format; conditions: F-scrambled peptide; for 384-well COUNTERSCREEN Confirm?: *: Curve in opposite direction; for IC50: read-out: 384-well COUNTERSCREEN IC50
T2 construct: made in house; host or cells: BL-21 plus RIL cells (E. coli)
T2 sequence (Q99828 1-191): T1 sequence (Q99828 1-191)

[3] = molecular target: T3, CIB1 and αIIb interaction (CIB1-GST : F-αIIb peptide) (Homo sapiens, UniProt Q99828); experiment: FP assay, 1536-well qHTS format (primary and confirmatory screen); conditions: for CONFIRMATORY SCREEN Confirm?: YES/NO call; for CONFIRMATORY SCREEN Curve Class: qHTS curve class; for CONFIRMATORY SCREEN Curve Class / Curve Class: negative sign = inhibitory curve
T3 construct: made in house; host or cells: BL-21 plus RIL cells (E. coli)
T3 sequence (Q99828 1-191): T1 sequence (Q99828 1-191)

[4] = molecular target: T2, GST-CIB1 : F-scrambled peptide; experiment: FP scrambled-peptide counter screen, 1536-well format; conditions: for COUNTERSCREEN Confirm?: YES/NO call; for COUNTERSCREEN Curve Class: qHTS curve class; for IC50: read-out: COUNTERSCREEN IC50
[5] = confirmatory screen, read-out: CONFIRMATORY SCREEN IC50
[6] = qHTS primary screen hits, Table S2, negative = inhibition
[7] = qHTS primary screen hits, Table S2
[8] = qHTS primary screen hits, Table S2, read-out: IC50
[9] = scrambled-peptide counterscreen
[10] = confirmatory screen, negative = inhibition
[11] = qHTS FP screen hits, Table S2, negative = inhibition
[12] = qHTS FP screen hits, Table S2, one class per curve where COUNT > 1
[13] = qHTS FP screen hits, Table S2, read-out: IC50

Structure (SMILES) | 384-well SCREEN Efficacy (%) [1] [%] | 384-well SCREEN Confirm? [1] | 384-well COUNTERSCREEN Efficacy (%) [2] [%] | 384-well COUNTERSCREEN Confirm? [2] | IC50 [2] [µM] | CONFIRMATORY SCREEN Confirm? ([3]; confirmatory screen) | CONFIRMATORY SCREEN Curve Class ([3]; confirmatory screen) | IC50 [3, 5] [µM] | Efficacy (%) [3, 6] [%] | Curve Class [3, 7] | IC50 [3, 8] [µM] | COUNTERSCREEN Confirm? [4, 9] | COUNTERSCREEN Curve Class [4, 9] | IC50 [1] [µM] | CONFIRMATORY SCREEN Efficacy (%) [3, 10] [%] | Efficacy (%) [3, 11] [%] | Curve Class [3, 12] | IC50 [3, 13] [µM] | COUNTERSCREEN Efficacy (%) [4, 9] [%] | IC50 [4, 9] [µM] | other results
O=C(Nc1nc(-c2ccccc2)cs1)c1ccncc1NS(=O)(=O)c1ccc2ccccc2c1.O=C(O)C(F)(F)F [NCGC00345031-01] | 47 | YES | 81 | YES* | 28.2 | YES | -1.4 | 20 | -53 | -2.2 | 39.8 | YES | 3 |  |  |  |  |  |  |  | CONFIRMATORY SCREEN Efficacy (%) [3]: -84%; COUNTERSCREEN Efficacy (%) [4]: 0%
Brc1c(Br)c(Br)c2[nH]nnc2c1Br [NCGC00092352-04, 4,5,6,7-tetrabromobenzotriazole, reference compound] | 40 | YES | 35 | YES | > 120 | YES | -1.2 | 2.8 |  |  |  | YES | 3 | 4.7 | -43 | -49 | -1.2 | 14.1 | 79 | 79.4 | IC50 ([3]; 1536-well qHTS of 14,782 compounds, read-out: intraplate control IC50): ~10.7 µM; IC50 ([3]; 1536-well, LOPAC1280 pilot screen, 0.85 μM GST-CIB1, 100 nM F-αIIb, RT 15 minutes): double-digit micromolar inhibitor
Cc1ccc(S(=O)(=O)Nc2cnccc2C(=O)Nc2nc(-c3cccc(Cl)c3)cs2)cc1.O=C(O)C(F)(F)F [NCGC00318956-01] | 43 | YES | 84 | YES* | 20 | YES | -1.1 |  | -32 | -1.4 | 12.6 | YES | 4 | 14.2 | -94 |  |  |  | -8.5 |  | 
C=CCNc1oc(-c2cccc3ccccc23)nc1C#N.O=C(O)C(F)(F)F [NCGC00068824-04] | 71 | YES | 51 |  | 4.5 | YES | -1.2 | 15.8 |  |  |  | YES | 4 | 4 | -78 | -38 | -1.2 | 17.8 | -19 |  | 
Cc1ccc(S(=O)(=O)Nc2cnccc2C(=O)Nc2nc(-c3ccccc3)cs2)cc1.O=C(O)C(F)(F)F [NCGC00262386-01] | 29 | YES | 42 | YES | > 120 | YES | -1.2 | 14.1 | -42 |  | 27.4 | YES | -3 | 16.1 | -53 |  |  |  | -51 | 89.1 | 
O=C(O)C1=NC(C(=O)O)CC(/C=C/N2c3cc(O)c(OC4OC(CO)C(O)C(O)C4O)cc3CC2C(=O)O)=C1 (stereo not drawn) [NCGC00346734-01] | 43 | YES | 10 | YES | > 120 | YES | -2.2 | 50.1 | -25 | -2.4 | 24.1 | YES | 4 | 39.8 | -66 |  |  |  | -18 |  | 
